Assay results published in patent US11278602B2, “Medicine for Covid-19 and treatment” (Therapeutica Borealis Oy, priority 2020, dated 2022).

Assays:
[1] = components of the nasal spray; cited from earlier work
[2] = pKa / protonation state of weak base; type: physicochemical; conditions: per the Henderson-Hasselbalch equation
Source text: Nicotine is also known to be a weak base, pH 8.5. It has been shown in earlier in vitro studies that it could inhibit receptor mediated endosytosis. Due to the fact that it is a weak base it could penetrate cell membrane especially at pH near its isoelectric point and thus it may also effect glycosylation at Golgi compartment.

Row | Molecule | solubility in water [1] | deprotonated at physiological pH [2]
1 | CCN(CCO)CCCC(C)Nc1ccnc2cc(Cl)ccc12 (stereo not shown) [Hydroxychloroquine] | at least 200 mg/mL | 
2 | Ivermectin | 50 mg/mL | 
3 | Aprotinin | > 10 mg/mL | 
4 | CCN(CC)CCCC(C)Nc1ccnc2cc(Cl)ccc12 (stereo not shown) [chloroquine] |  | about 10%
